From patent publication US20220130493A1, “METHOD AND SYSTEMS FOR PHYTOMEDICINE ANALYTICS FOR RESEARCH OPTIMIZATION AT SCALE” (GBS Global BioPharma, Inc., priority 2020, published 2022)

Legend:
[1] = in vivo; cited from earlier work
TRPV1 = test: Whole cell patch clamp electrophysiology of TRPV1 conductance; format: cell-based
Description: FIG. 25C provides data on the functional effects of terpenes at the nociceptive ion channel TRPV1.

CN1C[C@H](C(=O)N[C@]2(C)O[C@@]3(O)[C@@H]4CCCN4C(=O)[C@H](Cc4ccccc4)N3C2=O)C=C2c3cccc4[nH]cc(c34)C[C@H]21 [ergotamine]
side effects [1]: nausea, vomiting and cardiovascular side effects

C=CC(=C)CCC=C(C)C [myrcene]
TRPV1 conductance (TRPV1): activate TRPV1 conductance
